As a reminder, the melting point is the temperature of the solid-liquid transition.

Compound `N#CCC(=O)N[C@H]1CC[C@H](CCN2CCC(c3cc(C(F)(F)F)cc(C(F)(F)F)c3)CC2)CC1` [Example 200, N-(4-{2-[4-(3,5-Bis-trifluoro-methylphenyl)piperidin-1-yl]ethyl}cyclohexyl)-2-cyanoacetamide] had a melting point of 164 °C.
The result for `CC(=O)CCCC(=O)N[C@H]1CC[C@H](CCN2CCN(c3cccc(C(F)(F)F)c3)CC2)CC1` [Example 202, 5-Oxo-hexanoic acid (4-{2-[4-(3-trifluoromethylphenyl)piperazin-1-yl]ethyl}cyclohexyl)amide] reads 158 °C.
The result for `N#CCCCC(=O)N[C@H]1CC[C@H](CCN2CCN(c3ccccc3F)CC2)CC1` [Example 204, 4-Cyano-N-(4-{2-[4-(2-fluorophenyl)piperazin-1-yl]ethyl}cyclohexyl)butanamide] reads 170 °C; that for `N#CCCCC(=O)N[C@H]1CC[C@H](CCN2CCN(c3cccc(Cl)c3F)CC2)CC1` [Example 205, N-(4-{2-[4-(3-Chloro-2-fluorophenyl)piperazin-1-yl]ethyl}cyclohexyl)-4-cyanobutanamide], 186 °C.
Compound `N#CCCCC(=O)N[C@H]1CC[C@H](CCN2CCN(c3cccc(OC(F)(F)F)c3)CC2)CC1` [Example 206, 4-Cyano-N-(4-{2-[4-(3-trifluoromethoxyphenyl)piperazin-1-yl]ethyl}cyclohexyl)butanamide] returned a melting point of 133 to 134 °C.
Compound `N#CCCCC(=O)N[C@H]1CC[C@H](CCN2CCN(c3cc(C(F)(F)F)ccc3F)CC2)CC1` [Example 207, 4-Cyano-N-(4-{2-[4-(2-fluoro-5-trifluoromethylphenyl)piperazin-1-yl]ethyl}cyclohexyl)butanamide] registered a melting point of 138 to 139 °C.
Take `N#CCC(=O)N[C@H]1CC[C@H](CCN2CCN(c3cccc(F)c3C#N)CC2)CC1` [Example 208]: the melting point was 187 to 189 °C.
The result for `N#CCCCC(=O)N[C@H]1CC[C@H](CCN2CCN(c3cccc4c3CCCC4)CC2)CC1` [Example 209, 4-Cyano-N-(4-{2-[4-(5,6,7,8-tetrahydronaphthalen-1-yl)piperazin-1-yl]ethyl}cyclohexyl)butanamide] reads 148 °C; that for `N#CCCCC(=O)N[C@H]1CC[C@H](CCN2CCN(c3cccc(Cl)c3Cl)CC2)CC1` [Example 210, 4-Cyano-N-(4-{2-[4-(2,3-dichlorophenyl)piperazin-1-yl]ethyl}cyclohexyl)butanamide], 192 °C.
Regarding `N#CCC(=O)N[C@H]1CC[C@H](CCN2CCN(c3ccc4c(c3)CCCC4)CC2)CC1` [Example 211, 2-Cyano-N-(4-{2-[4-(5,6,7,8-tetrahydronaphthalen-2-yl)piperazin-1-yl]ethyl}cyclohexyl)acetamide], the melting point was 200 °C.
`N#CCC(=O)N[C@H]1CC[C@H](CCN2CCN(c3ccc4c(c3)CCC4)CC2)CC1` [Example 212, 2-Cyano-N-{4-[2-(4-indan-5-ylpiperazin-1-yl)ethyl]cyclohexyl}acetamide] gave a melting point of 210 °C.
The compound `N#CCCC(=O)N[C@H]1CC[C@H](CCN2CCN(c3cc(C(F)(F)F)cc(C(F)(F)F)c3)CC2)CC1` [Example 213, N-(4-{2-[4-(3,5-Bistrifluoromethylphenyl)piperazin-1-yl]ethyl}cyclohexyl)-3-cyanopropanamide] registered a melting point of 158 to 159 °C.
Then `N#CCCC(=O)N[C@H]1CC[C@H](CCN2CCN(c3cccc(C(F)(F)F)c3F)CC2)CC1` [Example 214, 3-Cyano-N-(4-{2-[4-(2-fluoro-3-trifluoromethylphenyl)piperazin-1-yl]ethyl}cyclohexyl)propanamide trans/cis 95/5], with 153 °C; and `COc1c(Cl)cccc1N1CCN(CC[C@H]2CC[C@H](NC(=O)CC#N)CC2)CC1` [Example 215, N-(4-{2-[4-(3-Chloro-2-methoxyphenyl)piperazin-1-yl]ethyl}cyclohexyl)-2-cyanoacetamide], with 122 °C.
Take `N#CCC(=O)N[C@H]1CC[C@H](CCN2CCN(c3cccc(Cc4ccccc4)c3)CC2)CC1` [Example 216, N-(4-{2-[4-(3-Benzylphenyl)-piperazin-1-yl]ethyl}cyclohexyl)-2-cyanoacetamide]: the melting point is 168 °C.
Then `CCOC(=O)Nc1cccc(N2CCN(CC[C@H]3CC[C@H](NC(=O)CC#N)CC3)CC2)c1` [Example 217, [3-(4-{2-[4-(2-Cyanoacetylamino)cyclohexyl]ethyl}piperazin-1-yl)phenyl] carbamic acid ethyl ester], with 170 °C; and `N#CCC(=O)N[C@H]1CC[C@H](CCN2CCC(c3cccc(C(F)(F)F)c3)CC2)CC1` [Example 218, 2-Cyano-N-(4-{2-[4-(3-trifluoromethylphenyl)piperidin-1-yl]ethyl}cyclohexyl)acetamide], with 129 °C.
Compound `Cc1cccc(N2CCN(CC[C@H]3CC[C@H](NC(=O)CC#N)CC3)CC2)c1C` [Example 219, 2-Cyano-N-(4-{2-[4-(2,3-dimethylphenyl)piperazin-1-yl]ethyl}cyclohexyl)acetamide] gave a melting point of 166 °C.
Then `Cc1ccccc1N1CCN(CC[C@H]2CC[C@H](NC(=O)CC#N)CC2)CC1` [Example 220, 2-Cyano-N-{4-[2-(4-o-tolylpiperazin-1-yl)ethyl]cyclohexyl}acetamide], with 150 °C.
The result for `COc1ccc(OC)c(N2CCN(CC[C@H]3CC[C@H](NC(=O)CC#N)CC3)CC2)c1` [Example 221, 2-Cyano-N-(4-{2-[4-(2,5-dimethoxyphenyl)piperazin-1-yl]ethyl}cyclohexyl)acetamide] reads 171 to 173 °C; that for `CC(=O)CCC(=O)N[C@H]1CC[C@H](CCN2CCN(c3cc(C(F)(F)F)cc(C(F)(F)F)c3)CC2)CC1` [Example 222, 4-Oxopentanoic acid (4-{2-[4-(3,5-bis-trifluoromethylphenyl)piperazin-1-yl]ethyl}cyclohexyl)amide], 172 to 174 °C.
Compound `CN(C)CCCC(=O)N[C@H]1CC[C@H](CCN2CCN(c3cccc(C(F)(F)F)c3)CC2)CC1` [Example 223, 4-Dimethylamino-N-(4-{2-[4-(3-trifluoromethylphenyl)piperazin-1-yl]ethyl}cyclohexyl)butanamide] returned a melting point of 128 °C.
Then `O=C(COc1ccc(F)cc1)N[C@H]1CC[C@H](CCN2CCN(c3cccc(C(F)(F)F)c3)CC2)CC1` [Example 224, 2-(4-Fluorophenoxy)-N-(4-{2-[4-(3-trifluoromethylphenyl)-piperazin-1-yl]ethyl}cyclohexyl)-acetamide], with 119 °C.
The result for `N#CCC(=O)N[C@H]1CC[C@H](CCN2CCN(c3cc(F)ccc3F)CC2)CC1` [Example 226, 2-Cyano-N-(4-{2-[4-(2,5-difluorophenyl)piperazin-1-yl]ethyl}cyclohexyl)acetamide] reads 198 °C; that for `Cc1ccc(Cl)c(N2CCN(CC[C@H]3CC[C@H](NC(=O)CC#N)CC3)CC2)c1` [Example 227, N-(4-{2-[4-(2-Chloro-5-methylphenyl)piperazin-1-yl]ethyl}cyclohexyl)-2-cyanoacetamide], 174 °C.
The result for `N#CCC(=O)N[C@H]1CC[C@H](CCN2CCN(c3cc(Cl)ccc3Cl)CC2)CC1` [Example 228, 2-Cyano-N-(4-{2-[4-(2,5-dichlorophenyl)piperazin-1-yl]ethyl}cyclohexyl)acetamide] reads 182 to 184 °C.
The compound `N#CCCCC(=O)N[C@H]1CC[C@H](CCN2CCN(c3cccc(Cl)c3)CC2)CC1` [Example 229, N-(4-{2-[4-(3-Chlorophenyl)-piperazin-1-yl]ethyl}cyclohexyl)-4-cyanobutanamide] gave a melting point of 171 to 173 °C.
The result for `Cc1c(N2CCN(CC[C@H]3CC[C@H](NC(=O)CCCC#N)CC3)CC2)cccc1C(F)(F)F` [Example 230, 4-Cyano-N-(4-{2-[4-(2-methyl-3-trifluoromethylphenyl)piperazin-1-yl]ethyl}cyclohexyl)butanamide] reads 162 °C; that for `CC(=O)CCC(=O)N[C@H]1CC[C@H](CCN2CCN(c3cccc(C(F)(F)F)c3F)CC2)CC1` [Example 231, 4-Oxopentanoic acid (4-{2-[4-(2-fluoro-3-trifluoromethyl-phenyl)piperazin-1-yl]ethyl}cyclohexyl)amide], 178 °C.
The result for `CC(C)(C)c1cc(N2CCN(CC[C@H]3CC[C@H](NC(=O)CC#N)CC3)CC2)cc(C(C)(C)C)c1` [Example 232, 2-Cyano-N-(4-{2-[4-(3,5-di-tert-butylphenyl)piperazin-1-yl]ethyl}cyclohexyl)acetamide] reads 168 °C; that for `N#CCCCC(=O)N[C@H]1CC[C@H](CCN2CCN(c3ccccc3Cl)CC2)CC1` [Example 233, N-(4-{2-[4-(2-Chlorophenyl)piperazin-1-yl]ethyl}cyclohexyl)-4-cyanobutanamide], 142 °C.
The result for `Cc1cccc(N2CCN(CC[C@H]3CC[C@H](NC(=O)CCCC#N)CC3)CC2)c1` [Example 234, 4-Cyano-N-{4-[2-(4-m-tolylpiperazin-1-yl)ethyl]cyclohexyl}butanamide] reads 150 °C.
Consider `Cc1cccc(N2CCN(CC[C@H]3CC[C@H](NC(=O)CC(F)(F)F)CC3)CC2)c1` [Example 235, 3,3,3-Trifluoro-N-{4-[2-(4-m-tolylpiperazin-1-yl)ethyl]cyclohexyl}propanamide], for which the melting point stood at 170 °C.
As to `CSc1ccccc1N1CCN(CC[C@H]2CC[C@H](NC(=O)CCCC#N)CC2)CC1` [Example 236, 4-Cyano-N-(4-{2-[4-(2-methylsulfanylphenyl)piperazin-1-yl]ethyl}cyclohexyl)butanamide], the melting point came out at 130 °C.
Then `N#CCC(=O)N[C@H]1CC[C@H](CCN2CCN(c3cccc4cccnc34)CC2)CC1` [Example 237, 2-Cyano-N-{4-[2-(4-quinolin-8-ylpiperazin-1-yl)ethyl]-cyclohexyl}acetamide], with 225 °C.
The result for `CSc1cccc(N2CCN(CC[C@H]3CC[C@H](NC(=O)CCCC#N)CC3)CC2)c1` [Example 238, 4-Cyano-N-(4-{2-[4-(3-methylsulfanylphenyl)piperazin-1-yl]ethyl}cyclohexyl)butanamide] reads 127 °C.

Values taken from patent US8802678B2, “Carbonylated (aza) cyclohexanes as dopamine D3 receptor ligands” (Bioprojet, priority 2006, dated 2014).
